Experimental data: ChEMBL document CHEMBL5543065, “ATP ion channel P2X7 receptor as a regulatory molecule in the progression of colorectal cancer” (Eur J Med Chem, 2023)

Columns and labels:
[1] = tested on: HCT-116; assay: Antiproliferative activity against human HCT-116 cells assessed as reduction in cell growth incubated for 72 hrs by MTT assay; assay type: functional, cell-based; details: HCT-116, 72 h
[2] = tested on: HCT-116; assay: Antiproliferative activity against human HCT-116 cells assessed as reduction in cell viability incubated for 24 hrs by CCK-8 assay; assay type: functional, cell-based; details: HCT-116, 24 h

| IC50 [1] [nM] | IC50 [2] [nM] | Structure (SMILES) |
| --- | --- | --- |
| 5520 |  | O=C(Nc1ccc(C(F)(F)F)cc1)Nc1nnc(Sc2cc(NCCCN3CCOCC3)ncn2)s1 |
|  | 350 | O=C1c2ccccc2C(=O)c2c(-c3ccccc3F)noc21 |
